Measurements taken from paper PMC5826917, “A small molecule inhibitor of Nicotinamide N-methyltransferase for the treatment of metabolic disorders” (Scientific Reports, 2018).

How the values were obtained:
[1] = target: Mono Amine Oxydase A (MAO-A) (Homo sapiens, UniProt P21397); test: Selectivity panel: MAO-A; assay type: biochemical; conditions: read-out: I% (antagonistic or inhibitory), MAO-A
[2] = target: Serotonin receptor 2B (5HT2B (Homo sapiens, UniProt P41595)); test: Selectivity panel: 5HT2B; assay type: cell-based
Chain of Serotonin receptor 2B (5HT2B (P41595 whole entry): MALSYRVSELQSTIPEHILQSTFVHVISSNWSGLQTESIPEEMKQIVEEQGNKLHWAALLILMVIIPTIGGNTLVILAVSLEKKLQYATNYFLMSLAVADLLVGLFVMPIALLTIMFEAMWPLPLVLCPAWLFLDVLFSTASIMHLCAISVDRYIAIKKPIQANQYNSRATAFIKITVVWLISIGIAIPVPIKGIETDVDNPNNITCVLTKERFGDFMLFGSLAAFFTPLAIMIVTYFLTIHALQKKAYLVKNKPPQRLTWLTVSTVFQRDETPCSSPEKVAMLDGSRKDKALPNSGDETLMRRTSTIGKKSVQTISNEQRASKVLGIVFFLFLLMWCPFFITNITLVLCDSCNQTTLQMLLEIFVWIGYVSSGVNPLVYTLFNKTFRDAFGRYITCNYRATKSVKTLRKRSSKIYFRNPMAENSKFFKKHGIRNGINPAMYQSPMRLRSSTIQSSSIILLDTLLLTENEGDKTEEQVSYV
Description: (§1) Supplement 41598_2018_22081_MOESM1_ESM.docx, table 2: Supplementary table 2: Selectivity profile of JBSNF-000088 (at 10 µM) vs a panel of 34 receptors, channels and enzymes. | column: E% (agonistic); I% (antagonistic or inhibitory)

in vitro = conditions: human, Caco-2
[3] = target: Muscarinic Receptor 1 (CHRM1) (Homo sapiens, UniProt P11229); test: Selectivity panel: CHRM1; assay type: cell-based
Chain of Muscarinic Receptor 1 (CHRM1) (P11229 whole entry): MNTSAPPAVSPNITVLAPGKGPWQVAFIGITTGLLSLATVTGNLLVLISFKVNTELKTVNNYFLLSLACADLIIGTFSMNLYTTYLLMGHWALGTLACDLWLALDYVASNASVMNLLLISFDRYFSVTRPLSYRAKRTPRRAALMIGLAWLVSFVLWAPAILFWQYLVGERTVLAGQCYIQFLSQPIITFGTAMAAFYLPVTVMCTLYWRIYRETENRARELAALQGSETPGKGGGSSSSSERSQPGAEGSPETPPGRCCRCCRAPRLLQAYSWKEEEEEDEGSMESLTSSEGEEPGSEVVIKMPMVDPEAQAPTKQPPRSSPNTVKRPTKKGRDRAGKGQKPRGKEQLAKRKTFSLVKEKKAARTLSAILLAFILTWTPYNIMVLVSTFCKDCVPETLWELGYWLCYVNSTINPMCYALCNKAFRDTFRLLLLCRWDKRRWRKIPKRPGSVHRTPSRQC
Description: as §1

NaV1.5 = NaV1.5 (Homo sapiens, UniProt Q14524); test: NaV1.5 assay; conditions: tested at 30 µM, result printed @ 10 µM; data not shown
[4] = target: Histamine Receptor 1 (H1) (Homo sapiens, UniProt P35367); test: Selectivity panel: H1; assay type: cell-based
Chain of Histamine Receptor 1 (H1) (P35367 whole entry): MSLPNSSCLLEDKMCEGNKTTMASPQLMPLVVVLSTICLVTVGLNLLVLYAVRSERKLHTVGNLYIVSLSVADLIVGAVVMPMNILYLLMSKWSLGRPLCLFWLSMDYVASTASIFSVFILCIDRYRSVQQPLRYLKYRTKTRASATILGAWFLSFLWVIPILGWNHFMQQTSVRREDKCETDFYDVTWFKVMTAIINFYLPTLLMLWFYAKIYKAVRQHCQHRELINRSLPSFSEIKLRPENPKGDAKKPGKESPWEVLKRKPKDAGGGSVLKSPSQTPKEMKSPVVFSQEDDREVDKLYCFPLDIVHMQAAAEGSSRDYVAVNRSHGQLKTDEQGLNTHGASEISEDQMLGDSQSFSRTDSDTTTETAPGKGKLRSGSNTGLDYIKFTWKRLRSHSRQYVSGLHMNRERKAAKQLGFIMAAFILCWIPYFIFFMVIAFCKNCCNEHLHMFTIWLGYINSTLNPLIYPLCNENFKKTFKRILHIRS

SK+Ca channel- = test: Selectivity panel: SK+Ca channel; assay type: binding; conditions: 10 µM
hERG = hERG (Homo sapiens, UniProt Q12809); conditions: 10 µM
Chain of hERG (Q12809 whole entry): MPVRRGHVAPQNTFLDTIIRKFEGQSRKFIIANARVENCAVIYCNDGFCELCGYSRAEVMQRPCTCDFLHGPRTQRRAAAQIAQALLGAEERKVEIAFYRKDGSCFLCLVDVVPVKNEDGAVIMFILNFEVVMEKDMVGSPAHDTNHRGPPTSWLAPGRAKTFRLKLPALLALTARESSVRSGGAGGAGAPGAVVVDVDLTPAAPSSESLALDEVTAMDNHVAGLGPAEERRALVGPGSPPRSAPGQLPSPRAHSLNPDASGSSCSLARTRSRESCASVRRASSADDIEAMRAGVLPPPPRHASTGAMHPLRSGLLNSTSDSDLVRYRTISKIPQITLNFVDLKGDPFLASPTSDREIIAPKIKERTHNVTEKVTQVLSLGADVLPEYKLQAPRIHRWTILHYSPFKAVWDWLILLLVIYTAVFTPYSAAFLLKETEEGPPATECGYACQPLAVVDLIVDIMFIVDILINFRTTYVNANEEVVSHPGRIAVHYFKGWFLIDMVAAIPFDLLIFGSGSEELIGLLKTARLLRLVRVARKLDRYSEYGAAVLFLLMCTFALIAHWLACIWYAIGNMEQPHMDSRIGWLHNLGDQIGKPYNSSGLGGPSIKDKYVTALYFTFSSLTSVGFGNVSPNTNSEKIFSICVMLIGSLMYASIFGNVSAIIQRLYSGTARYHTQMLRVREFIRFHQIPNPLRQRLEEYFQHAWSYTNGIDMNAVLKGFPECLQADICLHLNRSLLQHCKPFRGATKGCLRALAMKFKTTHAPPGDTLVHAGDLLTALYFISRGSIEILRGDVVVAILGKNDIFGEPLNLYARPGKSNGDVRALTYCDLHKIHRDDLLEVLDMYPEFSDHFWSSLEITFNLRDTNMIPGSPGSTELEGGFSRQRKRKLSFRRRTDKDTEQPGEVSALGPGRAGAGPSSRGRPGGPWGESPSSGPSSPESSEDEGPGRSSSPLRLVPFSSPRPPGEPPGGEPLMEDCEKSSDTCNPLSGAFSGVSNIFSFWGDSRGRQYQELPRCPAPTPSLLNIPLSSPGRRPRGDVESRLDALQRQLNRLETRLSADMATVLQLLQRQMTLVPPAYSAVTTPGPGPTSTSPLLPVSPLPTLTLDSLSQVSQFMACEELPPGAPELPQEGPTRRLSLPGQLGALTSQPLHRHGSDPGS

[5] = target: Histamine Receptor 2 (H2) (Homo sapiens, UniProt P25021); test: Selectivity panel: H2; assay type: cell-based
Chain of Histamine Receptor 2 (H2) (P25021 whole entry): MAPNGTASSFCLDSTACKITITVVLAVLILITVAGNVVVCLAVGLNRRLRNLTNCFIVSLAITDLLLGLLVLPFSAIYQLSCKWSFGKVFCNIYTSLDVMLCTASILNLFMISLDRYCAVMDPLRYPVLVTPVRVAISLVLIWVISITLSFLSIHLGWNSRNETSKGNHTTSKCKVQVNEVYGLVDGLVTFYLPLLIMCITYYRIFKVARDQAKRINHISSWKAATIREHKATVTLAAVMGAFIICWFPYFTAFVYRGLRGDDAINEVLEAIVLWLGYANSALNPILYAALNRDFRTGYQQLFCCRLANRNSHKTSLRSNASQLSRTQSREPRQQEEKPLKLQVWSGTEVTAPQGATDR

Chain of Mono Amine Oxydase A (MAO-A) (P21397 whole entry): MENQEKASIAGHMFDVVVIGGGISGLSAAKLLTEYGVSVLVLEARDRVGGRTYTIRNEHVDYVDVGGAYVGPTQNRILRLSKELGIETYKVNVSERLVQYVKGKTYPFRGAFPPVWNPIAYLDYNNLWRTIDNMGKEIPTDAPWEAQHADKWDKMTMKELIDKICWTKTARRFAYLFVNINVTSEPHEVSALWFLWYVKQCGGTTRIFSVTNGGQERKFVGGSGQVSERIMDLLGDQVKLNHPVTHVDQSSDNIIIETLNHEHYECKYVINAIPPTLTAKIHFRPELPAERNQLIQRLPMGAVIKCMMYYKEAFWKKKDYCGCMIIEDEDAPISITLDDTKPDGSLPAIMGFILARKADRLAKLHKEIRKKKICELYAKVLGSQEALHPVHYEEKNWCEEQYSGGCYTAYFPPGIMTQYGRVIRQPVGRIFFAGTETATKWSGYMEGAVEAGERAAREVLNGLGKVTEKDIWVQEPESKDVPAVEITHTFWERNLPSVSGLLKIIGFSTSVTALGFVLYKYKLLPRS

Question: What does the source list for `COc1ccc(C(N)=O)cn1` [JBSNF-000088, 6-methoxynicotinamide]?
Answer: inhibition at 10 µM [1]: -1%; E% (agonistic), 5HT2B ([2]; 10 µM): 4%; inhibition at 10 µM ([2]; read-out: I% (antagonistic or inhibitory), 5HT2B): 13%; Papp (in vitro): 25.2 ×10⁻⁶ cm/s; efflux ratio (in vitro): 1.04; E% (agonistic), CHRM1 ([3]; 10 µM): -3%; inhibition at 10 µM ([3]; read-out: I% (antagonistic or inhibitory), CHRM1): -7%; NaV1.5 inhibition (NaV1.5): < 30%; E% (agonistic), H1 ([4]; 10 µM): -2%; inhibition at 10 µM ([4]; read-out: I% (antagonistic or inhibitory), H1): -5%; I% (antagonistic or inhibitory), SK+Ca channel (SK+Ca channel-): -4%; hERG inhibition (hERG): < 30%; E% (agonistic), H2 ([5]; 10 µM): -1%; inhibition at 10 µM ([5]; read-out: I% (antagonistic or inhibitory), H2): 6%
